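Protocol summary: plate cells (96-well), add compound at 5 concentrations, incubate 48 h, interpolate endpoints linearly. The concentration for 50% growth inhibition is given as GI50. TGI denotes the concentration required for complete inhibition of growth.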
Tests used:
Test in all cases: NCI tumour cell line growth inhibition, 48 h
LOX IMVI melanoma = tested on: LOX IMVI melanoma
HT29 colon = tested on: HT29 colon
NCI-H522 lung = tested on: NCI-H522 lung
SN12C renal = tested on: SN12C renal
HL-60(TB) leukemia = tested on: HL-60(TB) leukemia
IGROV1 ovarian = tested on: IGROV1 ovarian
OVCAR-8 ovarian = tested on: OVCAR-8 ovarian
RPMI-8226 leukemia = tested on: RPMI-8226 leukemia
DMS 273 small cell lung = tested on: DMS 273 small cell lung
786-0 renal = tested on: 786-0 renal
M19-MEL melanoma = tested on: M19-MEL melanoma
SF-268 CNS = tested on: SF-268 CNS
SK-MEL-5 melanoma = tested on: SK-MEL-5 melanoma
ACHN renal = tested on: ACHN renal
HCT-116 colon = tested on: HCT-116 colon
SK-MEL-28 melanoma = tested on: SK-MEL-28 melanoma
DMS 114 small cell lung = tested on: DMS 114 small cell lung
MALME-3M melanoma = tested on: MALME-3M melanoma
NCI-H460 lung = tested on: NCI-H460 lung
SK-OV-3 ovarian = tested on: SK-OV-3 ovarian
SK-MEL-2 melanoma = tested on: SK-MEL-2 melanoma
NCI-H23 lung = tested on: NCI-H23 lung
CCRF-CEM leukemia = tested on: CCRF-CEM leukemia
UACC-62 melanoma = tested on: UACC-62 melanoma
SNB-75 CNS = tested on: SNB-75 CNS
SNB-19 CNS = tested on: SNB-19 CNS
KM20L2 colon = tested on: KM20L2 colon
HCT-15 colon = tested on: HCT-15 colon
A498 renal = tested on: A498 renal
M14 melanoma = tested on: M14 melanoma
SNB-78 CNS = tested on: SNB-78 CNS
EKVX NSCLC = tested on: EKVX NSCLC
TK-10 renal = tested on: TK-10 renal
UO-31 renal = tested on: UO-31 renal
LXFL 529 NSCLC = tested on: LXFL 529 NSCLC
OVCAR-4 ovarian = tested on: OVCAR-4 ovarian
UACC-257 melanoma = tested on: UACC-257 melanoma
SW-620 colon = tested on: SW-620 colon
MOLT-4 leukemia = tested on: MOLT-4 leukemia
COLO 205 colon = tested on: COLO 205 colon
DLD-1 colon = tested on: DLD-1 colon
K-562 leukemia = tested on: K-562 leukemia
SF-539 CNS = tested on: SF-539 CNS
U251 CNS = tested on: U251 CNS
HOP-92 NSCLC = tested on: HOP-92 NSCLC
OVCAR-3 ovarian = tested on: OVCAR-3 ovarian
KM12 colon = tested on: KM12 colon
OVCAR-5 ovarian = tested on: OVCAR-5 ovarian
A549 NSCLC = tested on: A549 NSCLC

Compound `[Co+2].[O-]c1ccccc1C=NCc1ccccc1.[O-]c1ccccc1C=NCc1ccccc1` has a GI50 (LOX IMVI melanoma) of 77.2 µM, a TGI (LOX IMVI melanoma) greater than 100 µM and a GI50 (HT29 colon) of 82.6 µM. For the same compound, the TGI (HT29 colon) was greater than 100 µM, the GI50 (NCI-H522 lung) was 45.7 µM and the TGI (NCI-H522 lung) was greater than 100 µM. The GI50 (SN12C renal) was 80.1 µM, the TGI (SN12C renal) was greater than 100 µM and the GI50 (HL-60(TB) leukemia) was 7.85 µM. It also gave a TGI (HL-60(TB) leukemia) of 82.1 µM, a GI50 (IGROV1 ovarian) of 64.6 µM and a TGI (IGROV1 ovarian) greater than 100 µM. It also gave a GI50 (OVCAR-8 ovarian) of 99.2 µM, a TGI (OVCAR-8 ovarian) greater than 100 µM and a GI50 (RPMI-8226 leukemia) of 31.6 µM. The TGI (RPMI-8226 leukemia) was greater than 100 µM, the GI50 (DMS 273 small cell lung) was 95.8 µM and the TGI (DMS 273 small cell lung) was greater than 100 µM. It also gave a GI50 (786-0 renal) of 34.7 µM, a TGI (786-0 renal) greater than 100 µM and a GI50 (M19-MEL melanoma) of 39.8 µM. For the same compound, the TGI (M19-MEL melanoma) was greater than 100 µM, the GI50 (SF-268 CNS) was 11.6 µM and the TGI (SF-268 CNS) was greater than 100 µM. It also gave a GI50 (SK-MEL-5 melanoma) of 33.7 µM, a TGI (SK-MEL-5 melanoma) greater than 100 µM and a GI50 (ACHN renal) of 31.8 µM. For the same compound, the TGI (ACHN renal) was greater than 100 µM, the GI50 (HCT-116 colon) was 10.6 µM and the TGI (HCT-116 colon) was greater than 100 µM. For the same compound, the GI50 (SK-MEL-28 melanoma) was 6.9 µM, the TGI (SK-MEL-28 melanoma) was greater than 100 µM and the GI50 (DMS 114 small cell lung) was 28.7 µM. The TGI (DMS 114 small cell lung) was greater than 100 µM, the GI50 (MALME-3M melanoma) was 21.1 µM and the TGI (MALME-3M melanoma) was greater than 100 µM. The GI50 (NCI-H460 lung) was greater than 100 µM, the TGI (NCI-H460 lung) was greater than 100 µM and the GI50 (SK-OV-3 ovarian) was greater than 100 µM. It also gave a TGI (SK-OV-3 ovarian) greater than 100 µM, a GI50 (SK-MEL-2 melanoma) of 55.7 µM and a TGI (SK-MEL-2 melanoma) greater than 100 µM. For the same compound, the GI50 (NCI-H23 lung) was 51.1 µM, the TGI (NCI-H23 lung) was greater than 100 µM and the GI50 (CCRF-CEM leukemia) was 6.92 µM. For the same compound, the TGI (CCRF-CEM leukemia) was greater than 100 µM, the GI50 (UACC-62 melanoma) was 21.1 µM and the TGI (UACC-62 melanoma) was greater than 100 µM. The GI50 (SNB-75 CNS) was 21.3 µM, the TGI (SNB-75 CNS) was 69.6 µM and the GI50 (SNB-19 CNS) was 59.4 µM. The TGI (SNB-19 CNS) was greater than 100 µM, the GI50 (KM20L2 colon) was greater than 100 µM and the TGI (KM20L2 colon) was greater than 100 µM. It also gave a GI50 (HCT-15 colon) of 26.3 µM, a TGI (HCT-15 colon) greater than 100 µM and a GI50 (A498 renal) greater than 100 µM. It also gave a TGI (A498 renal) greater than 100 µM, a GI50 (M14 melanoma) of 28.3 µM and a TGI (M14 melanoma) greater than 100 µM. The GI50 (SNB-78 CNS) was greater than 100 µM, the TGI (SNB-78 CNS) was greater than 100 µM and the GI50 (EKVX NSCLC) was 56.6 µM. The TGI (EKVX NSCLC) was greater than 100 µM, the GI50 (TK-10 renal) was greater than 100 µM and the TGI (TK-10 renal) was greater than 100 µM. For the same compound, the GI50 (UO-31 renal) was 17.1 µM, the TGI (UO-31 renal) was 82.9 µM and the GI50 (LXFL 529 NSCLC) was 17.2 µM. For the same compound, the TGI (LXFL 529 NSCLC) was greater than 100 µM, the GI50 (OVCAR-4 ovarian) was 53.8 µM and the TGI (OVCAR-4 ovarian) was greater than 100 µM. For the same compound, the GI50 (UACC-257 melanoma) was 35.7 µM, the TGI (UACC-257 melanoma) was greater than 100 µM and the GI50 (SW-620 colon) was 41.4 µM. For the same compound, the TGI (SW-620 colon) was greater than 100 µM, the GI50 (MOLT-4 leukemia) was 6.37 µM and the TGI (MOLT-4 leukemia) was greater than 100 µM. For the same compound, the GI50 (COLO 205 colon) was 91.5 µM, the TGI (COLO 205 colon) was greater than 100 µM and the GI50 (DLD-1 colon) was 38.8 µM. It also gave a TGI (DLD-1 colon) greater than 100 µM, a GI50 (K-562 leukemia) of 32.8 µM and a TGI (K-562 leukemia) greater than 100 µM. The GI50 (SF-539 CNS) was 16.3 µM, the TGI (SF-539 CNS) was greater than 100 µM and the GI50 (U251 CNS) was 47.2 µM. For the same compound, the TGI (U251 CNS) was greater than 100 µM, the GI50 (HOP-92 NSCLC) was 11.1 µM and the TGI (HOP-92 NSCLC) was 92.4 µM. The GI50 (OVCAR-3 ovarian) was 8.06 µM, the TGI (OVCAR-3 ovarian) was greater than 100 µM and the GI50 (KM12 colon) was 67.8 µM. The TGI (KM12 colon) was greater than 100 µM, the GI50 (OVCAR-5 ovarian) was 62.7 µM and the TGI (OVCAR-5 ovarian) was greater than 100 µM. For the same compound, the GI50 (A549 NSCLC) was greater than 100 µM and the TGI (A549 NSCLC) was greater than 100 µM.

Source: PubChem BioAssay (NCI)
